# Assay results taken from patent publication US20220296659A1, “PHARMACEUTICAL COMPOSITION FOR TREATMENT OF TUMOR OR CANCER, AND APPLICATION THEREOF” (FANTASIA BIOPHARMA (ZHEJIANG) CO. LTD, priority 2019, published 2022).
# How the values were obtained:
# lung cancer cells = assay type: in vivo, mice; details: after completion of the experiment
smiles,measurement,setting,value
O=C(O)c1cc(O)c2c(c1)C(=O)c1cccc(O)c1C2=O [rhein],overall inhibition ratio (lung metastasis),lung cancer cells,15.8%
same,toxic damage to the tumor-bearing mice,"different doses, under the experimental conditions",did not cause toxic damage
same,influence on the body temperature of tumor-bearing mice,"mouse, in vivo",some fluctuations
